# Results taken from the supplement of paper PMC8967900.
# Test system: HAL-01
# Assay: selective drug sensitivity score (sDSS, relative to normal bone marrow) (sDSS (score)); higher = more potent and effective on the cell line relative to normal bone marrow cells
# Settings: 72 h
# 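Also: ALL cell lines in 384-well plates, five doses spanning 10,000-fold, each plate scaled between vehicle and 100 µmol/L benzalkonium chloride controls, sDSS an adapted area-under-curve metric.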
row,SMILES,selective drug sensitivity score
1,CNC(=O)c1ccc(C)c(-n2c(C)cc(OCc3ccc(F)cc3F)c(Br)c2=O)c1 (top concentration 1000 nM),2.6
2,CONC(=O)c1ccccc1Nc1cc(Nc2cc(C)nn2C(C)C)ncc1Cl (top concentration 1000 nM),2.96
3,CCOc1ccn(-c2ccc(F)cc2)c(=O)c1C(=O)Nc1ccc(Oc2ccnc(N)c2Cl)c(F)c1 (top concentration 2500 nM),0.1
4,CC[C@@H]1[C@H](F)C(=O)N[C@@H]1COc1nccc2cc(C(N)=O)c(OC)cc12 (top concentration 10000 nM),-1.32
5,C[C@H]1C[C@@H](n2c(Nc3ccc(OC(F)(F)F)cc3)nc3cc(CCC(=O)O)ccc32)CC(C)(C)C1 (top concentration 10000 nM),1.16
6,O=C(NCc1ccncc1)C12CC3CC(C1)CC(c1ccc(Cl)cc1)(C3)C2 (top concentration 50000 nM),4.28
7,O=C(O)c1ccc(CN2CCC(CN[C@@H]3C[C@H]3c3ccccc3)CC2)cc1 (top concentration 100000 nM),-0.62
8,COc1cc(N2CCN(C)CC2)ccc1Nc1nccc(-c2cn(C)c3cnccc23)n1 [AZ191] (top concentration 10000 nM),0.88
9,Cc1cc(Nc2nc(N[C@@H](C)c3ncc(F)cn3)ncc2Cl)[nH]n1 [AZD1480] (top concentration 1000 nM),-0.98
10,COc1cc(CCc2cc(NC(=O)c3ccc(N4CC(C)NC(C)C4)cc3)n[nH]2)cc(OC)c1 (stereo not given) [AZD4547] (top concentration 1000 nM),-0.14
11,CN(C)C(=O)c1ccc(S(=O)(=O)c2ccc(NC(=O)[C@@](C)(O)C(F)(F)F)c(Cl)c2)cc1 [AZD7545] (top concentration 10000 nM),-0.2
12,COc1cc(C)c(/C=C/C(C)=C/C=C/C(C)=C/C(=O)O)c(C)c1C [Acitretin] (top concentration 10000 nM),-1.6
13,CCC1(c2ccc(N)cc2)CCC(=O)NC1=O (stereo not given) [Aminoglutethimide] (top concentration 10000 nM),0
14,CNC(=O)c1ccc(N2C(=S)N(c3cnc(C#N)c(C(F)(F)F)c3)C(=O)C23CCC3)cc1F [Apalutamide] (top concentration 10000 nM),0
15,N#CC1(c2ccc(NC(=O)c3cccnc3NCc3ccncc3)cc2)CCCC1 [Apatinib] (top concentration 10000 nM),0
16,Cc1nc2cccc(N)c2c(=O)n1C1CCC(=O)NC1=O (stereo not given) [Avadomide (CC122)] (top concentration 10000 nM),1.6
17,Nc1nc(Nc2ccc3c(c2)CC[C@@H](N2CCCC2)CC3)nn1-c1cc2c(nn1)-c1ccccc1CCC2 [BGB324] (top concentration 10000 nM),-1.58
18,CC1(C)C(C(=O)Nc2ccc(S(=O)(=O)c3ccc(NC(=O)C4C(C)(C)C4(C)C)cc3)cc2)C1(C)C [BRD7116] (top concentration 10000 nM),3.36

# Test system: JURKAT
# Assay: as above
# Settings: 72 h
row,SMILES,selective drug sensitivity score
1,CNC(=O)c1ccc(C)c(-n2c(C)cc(OCc3ccc(F)cc3F)c(Br)c2=O)c1 (top concentration 1000 nM),0.9
2,CONC(=O)c1ccccc1Nc1cc(Nc2cc(C)nn2C(C)C)ncc1Cl (top concentration 1000 nM),-0.94
3,CCOc1ccn(-c2ccc(F)cc2)c(=O)c1C(=O)Nc1ccc(Oc2ccnc(N)c2Cl)c(F)c1 (top concentration 2500 nM),0
4,CC[C@@H]1[C@H](F)C(=O)N[C@@H]1COc1nccc2cc(C(N)=O)c(OC)cc12 (top concentration 10000 nM),0.48
5,C[C@H]1C[C@@H](n2c(Nc3ccc(OC(F)(F)F)cc3)nc3cc(CCC(=O)O)ccc32)CC(C)(C)C1 (top concentration 10000 nM),4.26
6,O=C(NCc1ccncc1)C12CC3CC(C1)CC(c1ccc(Cl)cc1)(C3)C2 (top concentration 50000 nM),3.18
7,O=C(O)c1ccc(CN2CCC(CN[C@@H]3C[C@H]3c3ccccc3)CC2)cc1 (top concentration 100000 nM),-0.62
8,COc1cc(N2CCN(C)CC2)ccc1Nc1nccc(-c2cn(C)c3cnccc23)n1 [AZ191] (top concentration 10000 nM),-3.02
9,Cc1cc(Nc2nc(N[C@@H](C)c3ncc(F)cn3)ncc2Cl)[nH]n1 [AZD1480] (top concentration 1000 nM),-3.68
10,COc1cc(CCc2cc(NC(=O)c3ccc(N4CC(C)NC(C)C4)cc3)n[nH]2)cc(OC)c1 (stereo not given) [AZD4547] (top concentration 1000 nM),-0.14
11,CN(C)C(=O)c1ccc(S(=O)(=O)c2ccc(NC(=O)[C@@](C)(O)C(F)(F)F)c(Cl)c2)cc1 [AZD7545] (top concentration 10000 nM),7
12,COc1cc(C)c(/C=C/C(C)=C/C=C/C(C)=C/C(=O)O)c(C)c1C [Acitretin] (top concentration 10000 nM),-1.2
13,CCC1(c2ccc(N)cc2)CCC(=O)NC1=O (stereo not given) [Aminoglutethimide] (top concentration 10000 nM),0
14,CNC(=O)c1ccc(N2C(=S)N(c3cnc(C#N)c(C(F)(F)F)c3)C(=O)C23CCC3)cc1F [Apalutamide] (top concentration 10000 nM),0
15,N#CC1(c2ccc(NC(=O)c3cccnc3NCc3ccncc3)cc2)CCCC1 [Apatinib] (top concentration 10000 nM),0
16,Cc1nc2cccc(N)c2c(=O)n1C1CCC(=O)NC1=O (stereo not given) [Avadomide (CC122)] (top concentration 10000 nM),0
17,Nc1nc(Nc2ccc3c(c2)CC[C@@H](N2CCCC2)CC3)nn1-c1cc2c(nn1)-c1ccccc1CCC2 [BGB324] (top concentration 10000 nM),1.02
18,CC1(C)C(C(=O)Nc2ccc(S(=O)(=O)c3ccc(NC(=O)C4C(C)(C)C4(C)C)cc3)cc2)C1(C)C [BRD7116] (top concentration 10000 nM),1.76

# Test system: KASUMI-2
# Assay: as above
# Settings: 72 h
row,SMILES,selective drug sensitivity score
1,CNC(=O)c1ccc(C)c(-n2c(C)cc(OCc3ccc(F)cc3F)c(Br)c2=O)c1 (top concentration 1000 nM),0
2,CONC(=O)c1ccccc1Nc1cc(Nc2cc(C)nn2C(C)C)ncc1Cl (top concentration 1000 nM),-0.94
3,CCOc1ccn(-c2ccc(F)cc2)c(=O)c1C(=O)Nc1ccc(Oc2ccnc(N)c2Cl)c(F)c1 (top concentration 2500 nM),0
4,CC[C@@H]1[C@H](F)C(=O)N[C@@H]1COc1nccc2cc(C(N)=O)c(OC)cc12 (top concentration 10000 nM),-1.32
5,C[C@H]1C[C@@H](n2c(Nc3ccc(OC(F)(F)F)cc3)nc3cc(CCC(=O)O)ccc32)CC(C)(C)C1 (top concentration 10000 nM),-0.14
6,O=C(NCc1ccncc1)C12CC3CC(C1)CC(c1ccc(Cl)cc1)(C3)C2 (top concentration 50000 nM),-0.42
7,O=C(O)c1ccc(CN2CCC(CN[C@@H]3C[C@H]3c3ccccc3)CC2)cc1 (top concentration 100000 nM),-0.62
8,COc1cc(N2CCN(C)CC2)ccc1Nc1nccc(-c2cn(C)c3cnccc23)n1 [AZ191] (top concentration 10000 nM),-5.12
9,Cc1cc(Nc2nc(N[C@@H](C)c3ncc(F)cn3)ncc2Cl)[nH]n1 [AZD1480] (top concentration 1000 nM),-4.28
